The test system of data set [1] is murine model for postoperative ileus (gastroparesis after intestinal manipulation). In words: Gastric emptying by scintigraphic imaging after intestinal manipulation (murine model for postoperative ileus). The format is in vivo, mice. Conditions: for gastric emptying rate k / half-emptying time: MAb pre-operative, hexamethonium or guanethidine postoperative injection.

For data set [2], the system named is MPO-containing leukocytes in ileal muscularis. Put plainly: Leukocyte recruitment / MPO activity in ileal muscularis after intestinal manipulation. The format is in vivo, mice.
Data set [3] deals with gastric emptying in control mice. Put plainly: Gastric emptying in control mice given the anesthetics.

SMILES strings stand for the structures.

As for `C[N+](C)(C)CCCCCC[N+](C)(C)C` [hexamethonium], in data set [1] (6 hours after IM), the gastroparesis entry is recorded as “reversed the gastroparesis partially”, the “gastric emptying rate k” value is “normalized” and the half-emptying time entry is listed as “normalized”. Also, in data set [1] (24 hours after IM), the development of gastroparesis entry is “completely”, the “gastric emptying rate k” value is “normalized” and the half-emptying time entry is listed as “normalized”. Also, the development of gastroparesis entry in data set [1] (mice, time not stated) is listed as “capable of preventing the development of gastroparesis”. Also, in data set [2] (24 hours after IM), the “leukocyte influx / recruitment in ileal muscularis (MPO-staining cells)” value was “did not affect”. Moreover, the “amount of MPO activity in muscularis homogenates” value in data set [2] (24 hours after surgery) was “did not affect”.
Take `CN1CCC(=C2c3ccccc3CC(=O)c3sccc32)CC1` [ketotifen]: the development of gastroparesis result in data set [1] (24 hours after IM) was “could be prevented”. For the same molecule, the “decrease of postoperative recruitment of MPO-containing leukocytes compared to vehicle” value in data set [2] (24 hours after IM, ketotifen 10 mg/kg p.o. for five days prior to surgery) was found to be 45%.
Regarding `Cc1cccc(C)c1N=C1NCCCS1` [xylazine], in data set [3] (xylazine 20 mg/kg used alone), the gastric emptying entry is “did not alter gastric emptying”.
With `CNC1(c2ccccc2Cl)CCCCC1=O` (stereo not shown) [ketamine], the gastric emptying result in data set [3] (xylazine 20 mg/kg in combination ketamine 100 mg/kg) is given as “did not alter gastric emptying”.

(Values after patent US20050070461A1, “Means and methods for altering the motility of the gastrointestinal tract” (priority 2002, published 2005).)
